This assay can be described thus: growth inhibition of yeast carrying parasite Hsp90, dose response, anti-malarial Hsp90 inhibitor project, ATP luminescence, 48 h, cherry-picked samples (AID 540268). The settings on record: yeast expressing the parasite Hsp90, ATP luminescence.

The record followed here is PubChem BioAssay AID540268 (Broad Institute, 2011).

Broadly, the AC50 is the midpoint of the concentration-response curve, whichever way the signal moves. Regarding `Oc1ccc(N=Nc2c(O)ccc3ccccc23)cc1`, the concentration at half-maximal activity (AC50) was 7.02 µM.

As to `Clc1ccccc1C(c1ccccc1)(c1ccccc1)n1ccnc1`, the AC50 was under 0.195 µM.
